Laboratory results: patent US20170035793A1, “Use of P2X Purinergic Receptor Agonists to Enhance Insulin Secretion In Pancreatic Beta Cells” (priority 2010, published 2017)
“Also recorded” adds a separate entry of the source.

Assays:
[1] = test system: mouse islets; test: Insulin secretion from perifused mouse islets; type: cell-based, Mice (C57BL/6); details: 1-1,000 μM
From the text: (§1) Islet Isolation. Islets were isolated as previously described (57). Monkey islets were isolated from cynomolgus monkeys (Macacca fascicularis) >4 years of age at the time of pancreas procurement, as previously described (58). Pig pancreata were procured from the local slaughterhouse. Mice (C57BL/6) and rat (Lewis rat; Harlan) islets were isolated using a rodent-islet isolation technique (59). All animal protocols were approved by the University of Miami Care and Use Committee. Human pancreatic islets were obtained from the Human Islet Cell Processing Facility at the Diabetes Research Institute, University of Miami Miller School of Medicine or from the Islet Cell Resource basic science islet distribution program, Islet Cell Resource Centers (ICRs) Consortium, Division of Clinical Research, National Center for Research Resources, National Institutes of Health. Human islets were dissociated into single cells using enzyme-free cell dissociation buffer (Invitrogen). […]
(§2) Insulin and Glucagon Secretion. Insulin and glucagon secretion were measured as previously described (8, 36). […] Hormone release in the perifusate was determined with the human or mouse Endocrine LINCOplex Kit following manufacturer's instructions (Lincoresearch). […]

[2] = test system: human islets; test: Dynamic insulin secretion from perifused human islets kept at constant glucose; type: cell-based
From the text: (§3) Islet Isolation. Islets were isolated as previously described (57). Monkey islets were isolated from cynomolgus monkeys (Macacca fascicularis) >4 years of age at the time of pancreas procurement, as previously described (58). Pig pancreata were procured from the local slaughterhouse. Mice (C57BL/6) and rat (Lewis rat; Harlan) islets were isolated using a rodent-islet isolation technique (59). All animal protocols were approved by the University of Miami Care and Use Committee. Human pancreatic islets were obtained from the Human Islet Cell Processing Facility at the Diabetes Research Institute, University of Miami Miller School of Medicine or from the Islet Cell Resource basic science islet distribution program, Islet Cell Resource Centers (ICRs) Consortium, Division of Clinical Research, National Center for Research Resources, National Institutes of Health. Human islets were dissociated into single cells using enzyme-free cell dissociation buffer (Invitrogen). Islets and islets cells from Q:1 all species were cultured identically (37° C. and 5% CO2) inCMRL Q:2 medium-1066 (Invitrogen), niacinamide (10 mM; Sigma), ITS (BD Biosciences), Zn2SO4 (15 μM, Sigma), GlutaMAX (2 mM; Invitrogen), Hepes (25 mM; Sigma), FBS (10%; Invitrogen), and penicillinstreptomycin (100 IU/mL-100 μg/mL; Invitrogen).
(§4) Insulin and Glucagon Secretion. Insulin and glucagon secretion were measured as previously described (8, 36). A high-capacity automated perifusion system was developed to dynamically measure hormone secretion from pancreatic islets. A low pulsatility peristaltic pump pushed Hepes-buffered solution (125 mM NaCl, 5.9 mM KCl, 2.56 mM CaCl2, 1 mM MgCl2, 25 mM Hepes, and 0.1% BSA, pH 7.4 at a perifusion rate of 100 μL/min) through a column containing 100 pancreatic islets immobilized in Bio-Gel P-4 Gel (BioRad). Except when otherwise stated, glucose concentration was adjusted to 3 mM for all experiments. Stimuli were applied with the perifusion buffer. The perifusate was collected in an automatic fraction collector designed for a 96-well plate format. The columns containing the islets and the perifusion solutions were kept at 37° C., and the perifusate in the collecting plate was kept at <4° C. Perifusates were collected every 1 min. Hormone release in the perifusate was determined with the human or mouse Endocrine LINCOplex Kit following manufacturer's instructions (Lincoresearch). Human islet preparations varied considerably in their quality. Thus, the magnitudes of the responses to different stimuli were compared with the same recording or using recordings from the same preparation.

[3] = test system: pig islets; test: Glucagon secretion from perifused pig islets; type: cell-based
From the text: as §1, §2

[4] = test system: monkey islets; test: Glucagon secretion from perifused monkey islets; type: cell-based, cynomolgus monkeys (Macacca fascicularis)
From the text: as §1, §2

[5] = test system: human islets; test: Glucose-induced insulin secretion (glucose raised from 3 mM to 11 mM) in perifused human islets; type: cell-based; details: glucose 3 mM to 11 mM, MRS2159 10 μM, Brilliant Blue G 1 μM, KN-62 1 μM, reactive blue 2 50 μM, MRS2179 10 μM, CGS15943 10 μM, adenosine 100 μM
From the text: as §3, §4

[6] = test system: pig islets; test: Insulin secretion from perifused pig islets; type: cell-based; details: 1-1,000 μM
From the text: as §1, §2

EC50 ([2]; 3 mM and 11 mM glucose, read-out: high affinity component of the concentration response relationship for insulin release): ~500 nM
Compound: Nc1ncnc2c1ncn2[C@@H]1O[C@H](COP(=O)(O)OP(=O)(O)OP(=O)(O)O)[C@@H](O)[C@H]1O [ATP]
insulin response of mouse islets [1]: No responses to ATP were observed; also recorded: neither ATP nor any of the other purinergic agonists tested stimulated insulin release
insulin secretory response to the agonist at low glucose ([2]; 3 mM glucose, ATP 100 μM (or concentration series), ATPγS 50 μM, BzATP 50 μM, α,β-methylene ATP 50 μM, ADP 100 μM, UTP 100 μM, adenosine 100 μM): elicited insulin secretory responses; also recorded: stimulated increases in insulin release concentration dependently; also recorded: promoted strong responses; also recorded: elicited large insulin and [Ca^2+]i, responses
response to high glucose (11 mM) compared with the increase elicited by ATP (1 mM) ([2]; ATP 1 mM response as reference): 101%±30
insulin release on increasing extracellular ATP >1 mM ([2]; ATP >1 mM): did not further raise insulin release
insulin responses to the agonist in islets kept at high glucose ([2]; constant 11 mM glucose, ATP 100 μM, ATPγS 50 μM, BzATP 50 μM, UTP 100 μM, ADP 100 μM): stimulated increases in insulin release concentration dependently; also recorded: promoted strong responses
glucagon response of pig islets [3]: difficult to discern
glucagon response of monkey islets [4]: stimulated small increases in glucagon secretion
effect on glucose-induced insulin secretion [5]: did not add to the insulin response; also recorded: not effective during abrupt increases in glucose concentration
insulin response of pig islets [6]: No responses to ATP were observed; also recorded: neither ATP nor any of the other purinergic agonists tested stimulated insulin release
